# Test results published in paper PMC7466635, “Identification of Quinazolinone Analogs Targeting CDK5 Kinase Activity and Glioblastoma Cell Proliferation” (Frontiers in Chemistry, 2020).
# Where two headings read alike, the source gives them in different places.
# Legend:
# CDK5 [1] = molecular target: T1, CDK5 (Homo sapiens, UniProt Q00535); assay: biochemical
# CDK5 [2] = molecular target: T1, CDK5; assay: biochemical; remark: listed apart in the source
# CDK5 [3] = molecular target: T1, CDK5; assay: CDKACT5-Cy5 fluorescent kinase activity biosensor with U87 cell extract; residual activity at […], IC50 not fittable; type: cell-based; settings: U-87 MG
# T1 sequence (Q00535 whole entry): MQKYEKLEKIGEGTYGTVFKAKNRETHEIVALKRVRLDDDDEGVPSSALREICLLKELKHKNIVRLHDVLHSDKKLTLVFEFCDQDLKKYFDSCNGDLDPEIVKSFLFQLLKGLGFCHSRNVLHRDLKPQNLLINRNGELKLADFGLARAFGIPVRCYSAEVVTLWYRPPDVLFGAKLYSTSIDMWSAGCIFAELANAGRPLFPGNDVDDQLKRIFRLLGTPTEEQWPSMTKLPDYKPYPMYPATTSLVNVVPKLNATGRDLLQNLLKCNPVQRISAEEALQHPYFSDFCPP
# T1 sequence (Q15078 2-307 partner): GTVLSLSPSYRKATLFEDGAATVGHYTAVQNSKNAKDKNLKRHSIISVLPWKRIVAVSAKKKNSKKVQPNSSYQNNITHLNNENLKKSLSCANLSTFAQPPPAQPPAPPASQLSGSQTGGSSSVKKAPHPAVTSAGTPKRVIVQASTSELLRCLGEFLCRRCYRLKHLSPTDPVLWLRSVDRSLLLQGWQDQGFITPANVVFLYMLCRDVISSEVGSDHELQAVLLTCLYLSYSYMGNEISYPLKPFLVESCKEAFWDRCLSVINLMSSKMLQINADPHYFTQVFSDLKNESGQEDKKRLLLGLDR
Structure (SMILES),IC50 (CDK5 [1]),IC50 (CDK5 [2]),further results
"Nc1ccc2[nH]c(SCc3nc4ccccc4c(=O)n3-c3ccccc3Br)nc2c1 [5j, JMV5886]",24.4 ± 32.5 µM,,
"Nc1ccc2[nH]c(SCc3nc4ccccc4c(=O)n3-c3ccccc3)nc2c1 [5d, JMV5800]",,8.29 ± 3.56 µM,
"Cc1ccc2c(=O)n(-c3ccccc3)c(CSc3nc4cc(N)ccc4[nH]3)nc2c1 [5p, JMV5735]",9.35 ± 11.1 µM,,
"Nc1ccc2[nH]c(SCc3nc4ccccc4c(=O)n3-c3ccc(Br)cc3)nc2c1 [5l, JMV5889]",28.7 ± 51.2 µM,,
"Nc1ccc2[nH]c(SCc3nc4ccccc4c(=O)n3-c3cccc(C(F)(F)F)c3)nc2c1 [5a, JMV5798]",,,activity at 100 µM (CDK5 [3]): 40.2 ± 2.4%
"Nc1ccc2[nH]c(SCc3nc4ccccc4c(=O)n3-c3cccc(Cl)c3)nc2c1 [5m, JMV5884]",,7.6 ± 3.8 µM,
